According to PubChem BioAssay AID2060499 (Molecular Pharmacology Branch, DTP, NCI, 2025):

Tested on: 777334-354-R2-J4-PDC tumor spheroids with HUVEC/MSC, viability
Experiment: Anticancer human tumor 777334-354-R2-J4-PDC patient-derived pancreatic adenocarcinoma cell line growth inhibition [GQUAD]
Settings: for IC50: curve of first compound; for viability, T/C: stronger effect = lower value
Method in brief: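 Viability of tumor cells grown as complex spheroids with endothelial and stromal cells, exposed to drug combinations. Top concentration at or near clinical Cmax (else 10 microM), diluted in half-log increments.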

[1] = second compound 0.0316 µM, first compound 0.0316 µM
[2] = second compound 0.0316 µM, first compound 0.1 µM
[3] = second compound 0.0316 µM, first compound 0.316 µM
[4] = second compound 0.0316 µM, first compound 1 µM
[5] = second compound 0.0316 µM, first compound 3.16 µM
[6] = second compound 0.0316 µM, first compound 10 µM
[7] = second compound 0.1 µM, first compound 0.0316 µM
[8] = second compound 0.1 µM, first compound 0.1 µM
[9] = second compound 0.1 µM, first compound 0.316 µM
[10] = second compound 0.1 µM, first compound 1 µM
[11] = second compound 0.1 µM, first compound 3.16 µM
[12] = second compound 0.1 µM, first compound 10 µM
[13] = second compound 0.316 µM, first compound 0.0316 µM
[14] = second compound 0.316 µM, first compound 0.1 µM
[15] = second compound 0.316 µM, first compound 0.316 µM
[16] = second compound 0.316 µM, first compound 1 µM
[17] = second compound 0.316 µM, first compound 3.16 µM
[18] = second compound 0.316 µM, first compound 10 µM
[19] = second compound 1 µM, first compound 0.0316 µM
[20] = second compound 1 µM, first compound 0.1 µM
[21] = second compound 1 µM, first compound 0.316 µM
[22] = second compound 1 µM, first compound 1 µM
[23] = second compound 1 µM, first compound 3.16 µM
[24] = second compound 1 µM, first compound 10 µM
[25] = second compound 3.16 µM, first compound 0.0316 µM
[26] = second compound 3.16 µM, first compound 0.1 µM
[27] = second compound 3.16 µM, first compound 0.316 µM
[28] = second compound 3.16 µM, first compound 1 µM
[29] = second compound 3.16 µM, first compound 3.16 µM
[30] = second compound 3.16 µM, first compound 10 µM
[31] = second compound 10 µM, first compound 0.0316 µM
[32] = second compound 10 µM, first compound 0.1 µM
[33] = second compound 10 µM, first compound 0.316 µM
[34] = second compound 10 µM, first compound 1 µM
[35] = second compound 10 µM, first compound 3.16 µM
[36] = second compound 10 µM, first compound 10 µM
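Further: spheroids exposed to compounds for 7 days before readout.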

O=C(c1cc(Cc2n[nH]c(=O)c3ccccc23)ccc1F)N1CCN(C(=O)C2CC2)CC1 + Cc1cnc(CNC(=O)c2c(=O)c3ccc(N4CCCN(C)CC4)nc3n3c2sc2ccccc23)cn1
IC50 (second compound 0.0316 µM): > 10000 nM | IC50 (second compound 0.1 µM): > 10000 nM | IC50 (second compound 0.316 µM): > 10000 nM | IC50 (second compound 1 µM): > 10000 nM | IC50 (second compound 3.16 µM): > 10000 nM | IC50 (second compound 10 µM): > 10000 nM | viability, T/C [1]: 85.9% | viability, T/C [2]: 94.2% | viability, T/C [3]: 96.6% | viability, T/C [4]: 92% | viability, T/C [5]: 90.6% | viability, T/C [6]: 75.7% | viability, T/C [7]: 88.9% | viability, T/C [8]: 88.2% | viability, T/C [9]: 91.8% | viability, T/C [10]: 88% | viability, T/C [11]: 76.7% | viability, T/C [12]: 70.3% | viability, T/C [13]: 79.9% | viability, T/C [14]: 76.5% | viability, T/C [15]: 69.7% | viability, T/C [16]: 75.1% | viability, T/C [17]: 74.3% | viability, T/C [18]: 64.9% | viability, T/C [19]: 73.8% | viability, T/C [20]: 75.6% | viability, T/C [21]: 76.2% | viability, T/C [22]: 68.8% | viability, T/C [23]: 69.5% | viability, T/C [24]: 60.4% | viability, T/C [25]: 56.5% | viability, T/C [26]: 55.9% | viability, T/C [27]: 63% | viability, T/C [28]: 64.2% | viability, T/C [29]: 64.9% | viability, T/C [30]: 56.2% | viability, T/C [31]: 61.5% | viability, T/C [32]: 54.2% | viability, T/C [33]: 51.9% | viability, T/C [34]: 55.8% | viability, T/C [35]: 61.9% | viability, T/C [36]: 47.7%

O=C(NO)c1cnc(N2CCN(S(=O)(=O)c3ccc4ccccc4c3)CC2)nc1 + Cc1[nH]c2ccc(F)cc2c1-c1nc2c3cccnc3c3ncccc3c2[nH]1
IC50 (second compound 0.0316 µM): 1440 nM | IC50 (second compound 0.1 µM): 1390 nM | IC50 (second compound 0.316 µM): 1520 nM | IC50 (second compound 1 µM): 1580 nM | IC50 (second compound 3.16 µM): 1050 nM | IC50 (second compound 10 µM): < 31.6 nM | viability, T/C [1]: 104% | viability, T/C [2]: 91.6% | viability, T/C [3]: 87.3% | viability, T/C [4]: 68.3% | viability, T/C [5]: 12.7% | viability, T/C [6]: 2.55% | viability, T/C [7]: 92.7% | viability, T/C [8]: 101% | viability, T/C [9]: 91.6% | viability, T/C [10]: 64.6% | viability, T/C [11]: 13.6% | viability, T/C [12]: 0.23% | viability, T/C [13]: 99.2% | viability, T/C [14]: 92.9% | viability, T/C [15]: 86.2% | viability, T/C [16]: 67.1% | viability, T/C [17]: 22% | viability, T/C [18]: 2.6% | viability, T/C [19]: 88.4% | viability, T/C [20]: 84.6% | viability, T/C [21]: 71.8% | viability, T/C [22]: 70.1% | viability, T/C [23]: 22.5% | viability, T/C [24]: 2.98% | viability, T/C [25]: 55.7% | viability, T/C [26]: 41.7% | viability, T/C [27]: 67% | viability, T/C [28]: 50.5% | viability, T/C [29]: 17.5% | viability, T/C [30]: 0.99% | viability, T/C [31]: 38.4% | viability, T/C [32]: 38.7% | viability, T/C [33]: 52.4% | viability, T/C [34]: 41.9% | viability, T/C [35]: 19.7% | viability, T/C [36]: 2.58%

C=CCn1c(=O)c2cnc(Nc3ccc(N4CCN(C)CC4)cc3)nc2n1-c1cccc(C(C)(C)O)n1 + CN(C)c1ccc(Nc2c3ccc(NC(=O)CCN4CCCC4)cc3nc3cc(NC(=O)CCN4CCCC4)ccc23)cc1
IC50 (second compound 0.0316 µM): 746 nM | IC50 (second compound 0.1 µM): 907 nM | IC50 (second compound 0.316 µM): 961 nM | IC50 (second compound 1 µM): 793 nM | IC50 (second compound 3.16 µM): 732 nM | IC50 (second compound 10 µM): 576 nM | viability, T/C [1]: 101% | viability, T/C [2]: 94.8% | viability, T/C [3]: 81.6% | viability, T/C [4]: 38.8% | viability, T/C [5]: 36.5% | viability, T/C [6]: 37.6% | viability, T/C [7]: 103% | viability, T/C [8]: 91.1% | viability, T/C [9]: 84.6% | viability, T/C [10]: 46.1% | viability, T/C [11]: 36.8% | viability, T/C [12]: 35.9% | viability, T/C [13]: 105% | viability, T/C [14]: 89.8% | viability, T/C [15]: 77.2% | viability, T/C [16]: 45.9% | viability, T/C [17]: 38.4% | viability, T/C [18]: 33.9% | viability, T/C [19]: 87% | viability, T/C [20]: 82.5% | viability, T/C [21]: 78% | viability, T/C [22]: 42.8% | viability, T/C [23]: 38.9% | viability, T/C [24]: 35.2% | viability, T/C [25]: 92.9% | viability, T/C [26]: 81.4% | viability, T/C [27]: 68% | viability, T/C [28]: 41% | viability, T/C [29]: 39.2% | viability, T/C [30]: 33.2% | viability, T/C [31]: 90.1% | viability, T/C [32]: 81.7% | viability, T/C [33]: 59.3% | viability, T/C [34]: 39.8% | viability, T/C [35]: 34.1% | viability, T/C [36]: 25.1%
